Reference: patent publication US10407388B2, “Thiourea derivatives as activators of RORα and pharmaceutical composition containing same” (SEOUL NATIONAL UNIVERSITY R & DB FOUNDATION, priority 2011, dated 2019)

Experiments:
RORα [1] = molecular target: T1, RORα (Homo sapiens, UniProt P35398); experiment: Transcriptional activity of RORα, RORE-tk-Luc reporter in CV-1 cells (Experimental Example 1); type: cell-based; conditions: for Fold Activation: JC1 compounds 100 μM, 24 hours, luciferase activity standardized by β-gal, versus control treated only with solvent
T1 construct: expressed in transfected cells; host or cells: CV-1 cells (ATCC CCL-70)
T1 sequence (P35398 1-523): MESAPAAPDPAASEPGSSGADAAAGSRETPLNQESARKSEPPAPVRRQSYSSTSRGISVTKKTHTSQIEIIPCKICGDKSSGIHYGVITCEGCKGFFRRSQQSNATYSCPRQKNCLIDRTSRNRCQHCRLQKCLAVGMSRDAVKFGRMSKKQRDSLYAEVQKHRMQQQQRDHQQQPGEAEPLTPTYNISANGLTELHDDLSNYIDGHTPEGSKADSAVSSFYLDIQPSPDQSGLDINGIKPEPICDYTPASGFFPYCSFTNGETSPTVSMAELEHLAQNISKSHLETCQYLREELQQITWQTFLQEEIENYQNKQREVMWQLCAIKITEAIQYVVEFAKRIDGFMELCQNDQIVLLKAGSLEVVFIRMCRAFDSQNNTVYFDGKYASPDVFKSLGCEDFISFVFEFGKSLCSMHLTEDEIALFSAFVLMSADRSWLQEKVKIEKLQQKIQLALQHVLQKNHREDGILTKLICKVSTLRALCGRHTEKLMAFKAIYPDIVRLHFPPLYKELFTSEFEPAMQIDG
Description: CV-1 cells (CCL-70) were purchased from American Type Culture Collection (ATCC). The CV-1 cells (4×10^4 cells/well) were seeded on a 24-well culture plate and cultured overnight in a Dulbecco's Modified Eagle's Medium (DMEM) containing 10% fetal bovine serum (FBS). The CV-1 cells were maintained at 37° C. in a humidification thermostat containing 5% CO2 and 95% air. After culturing, the cells were transformed with RORE-tk-Luc reporter plasmid (100 ng) and ROR expression vector (5 ng) using calcium phosphate. […]

RORα [2] = molecular target: T1, RORα; experiment: Transcriptional activity of RORα according to concentration, RORE-Luc reporter and Flag-RORα vector in CV-1 cells (Experimental Example 2); type: cell-based; conditions: for transcriptional activity of RORα / activity of RORα at low concentrations: 1 μM; for transcriptional activity of RORα: 10 μM, 20 μM, 50 μM, and 100 μM, 24 hours, FIG. 4; for activity of RORα at low concentrations: 10 μM, and 20 μM; for effect of increasing the activity of RORα compared with melatonin: 50 μM to 100 μM, melatonin 100 μM
Description: CV-1 cells (4×10^4 cells/well) were seeded on a 24-well culture plate and cultured overnight in a DMEM containing 10% FBS. The CV-1 cells were maintained at 37° C. in a humidification thermostat containing 5% CO2 and 95% air. After culturing, the CV-1 cells were transformed with RORE-Luc reporter (0.05 μg) and Flag-RORα vector (0.005 μg) using calcium phosphate. […] Subsequently, cell lysates were collected, and luciferase activity was analyzed and determined using an analytical luminescence luminometer. The luciferase activity was standardized by β-gal activity to determine transcriptional efficiency, and data was attained as the mean and SD for two or three independent experimental results, and the results thereof are illustrated in FIG. 4.

LXRα = experiment: Expression of LXRα protein in HepG2 cells, western blotting; type: cell-based, human; conditions: for expression of LXRα protein: 100 μM, 24 hours, FIG. 6a
Description: HepG2 cells (1×10^6 cells/well) were seeded on a 60-dish and cultured overnight in a DMEM containing 10% FBS. The HepG2 cells were maintained at 37° C. in a humidification thermostat containing 5% CO2 and 95% air. After culturing, the HepG2 cells were treated with each of the JC1-38, JC1-40, and JC1-42 compounds at a concentration of 100 μM, and, as a positive control, the HepG2 cells were treated with 2 mM metformin, which is an AMPK activator, for 24 hours. After treatment, the expression of proteins was analyzed by western blotting analysis. That is, after treatment, the HepG2 cells were destroyed on ice in a lysis buffer containing 50 mM NaCl, 50 mM Tris pH 7.4, 5 mM EDTA, 1% NP-40, and a protease inhibitor for 30 minutes, and then centrifuged to obtain a total cell lysate. 20 μg to 30 μg of proteins collected from the total cell lysate was subjected to 7% to 9% sodium dodecyl sulfate-polyacrylamide gel electrophoresis (SDS-PAGE), and was transferred to a polyvinylidene difluoride membrane (Millipore, Bedford, Mass., USA). The resulting product was subjected to blocking with 5% or 10% (w/v) nonfat dry milk in PBS containing 0.1% Tween-20, and was reacted with antibodies specific to RORα (Affinity BioReagents), LXRα, SREBP-1, FAS (Santa Cruz Biotechnology), phospho-ACC (Cell signaling), and α-tubulin (Calbiochem). Immunoreactive proteins were detected with Amersham ECL western blotting detection reagents using a horseradish peroxidase (HRP)-conjugated secondary antibody (Zymed Lab). Protein concentrations were quantified by bicinchoninic acid (BCA) (Pierce) analysis, and the expression of α-tubulin was monitored as a control. The results thereof are illustrated in FIG. 6a.
In addition, HepG2 cells were cultured under the same conditions, and then the HepG2 cells were treated with particular concentrations (0 μM, 1 μM, 10 μM, 50 μM, and 100 μM) of JC1-40 (or JC1-42) and 1 μM T17 for 24 hours. After treatment, the expression of proteins was analyzed by western blotting analysis, and the expression of α-tubulin was monitored as a control. The results thereof are illustrated in FIGS. 6b and 6c.

HMGCS2 = experiment: Fatty acid oxidation gene HMGCS2 in HepG2 cells, real-time RT-PCR; type: cell-based, human; conditions: 100 μM, 24 hours; FIG. 8
Description: (§1) HepG2 cells (1×10^6 cells/well) were seeded on a 60-dish and cultured overnight in a DMEM containing 10% FBS. The HepG2 cells were maintained at 37° C. in a humidification thermostat containing 5% CO2 and 95% air. After culturing, the HepG2 cells were treated with JC1-38, JC1-40, and JC1-42 at a concentration of 100 μM for 24 hours. After treatment, effects thereof on transcriptional activity were analyzed by real-time reverse transcriptase-polymerase chain reaction (real-time RT-PCR) analysis. The PCR was performed using the following primers respectively specific to MCAD, ACO1, ACO2, HMGCS2, CPT-1, and ACS, which are involved in fatty acid oxidation: […]

MTTP = experiment: VLDL secretion gene MTTP in HepG2 cells, RT-PCR; type: cell-based, human; conditions: 100 μM, 24 hours; FIG. 9b
Description: as §1, with “60-dish,” for “60-dish”, “RT-PCR” for “real-time reverse transcriptase-polymerase chain reaction (real-time RT-PCR)”, “CD36 (see FIG. 9a) involved in fatty acid uptake” for “MCAD, ACO1, ACO2, HMGCS2, CPT-1,”, “MTTP and ApoB100 (see FIG. 9b),” for “ACS,”, “the secretion of very low density lipoproteins:” for “fatty acid oxidation:”

ApoB100 = experiment: VLDL secretion gene ApoB100 in HepG2 cells, RT-PCR; type: cell-based, human; conditions: 100 μM, 24 hours; FIG. 9b
Description: as §1, with “60-dish,” for “60-dish”, “RT-PCR” for “real-time reverse transcriptase-polymerase chain reaction (real-time RT-PCR)”, “CD36 (see FIG. 9a) involved in fatty acid uptake” for “MCAD, ACO1, ACO2, HMGCS2, CPT-1,”, “MTTP and ApoB100 (see FIG. 9b),” for “ACS,”, “the secretion of very low density lipoproteins:” for “fatty acid oxidation:”

Row | Fold Activation (RORα [1]) | activity of RORα at low concentrations (RORα [2]) | activity (transcriptional activity of RORα) (RORα [1]; 100 μM, relative to control treated only with a solvent) [%] | Compound | transcriptional activity of RORα (RORα [2]) | effect of increasing the activity of RORα compared with melatonin (RORα [2]) | expression of LXRα protein (LXRα) | transcriptional activity of HMGCS2 (HMGCS2) | transcriptional activity of MTTP (MTTP) | transcriptional activity of ApoB100 (ApoB100) | expression of LXRα, which had been increased by T17 (LXRα; 0, 1, 10, 50, 100 μM with 1 μM T17, 24 hours, FIG. 6c)
1 | 4.6 | insignificantly increased | 460 | CNC(=S)NCc1ccc(Oc2ccccc2)cc1 [Compound 42, 1-(4-phenoxy-benzyl)-3-methyl-thiourea] | increased in a manner dependent on the concentration | comparable to or surpassed the effect provided by melatonin | decreased | increased | increased | increased | decreased in a manner dependent on the concentration
2 | 3.6 | insignificantly increased | – | CNC(=S)NCc1ccc(OCc2ccccc2)cc1 [Compound 40, 1-(4-benzyloxy-benzyl)-3-methyl-thiourea] | increased in a manner dependent on the concentration | comparable to or surpassed the effect provided by melatonin | decreased | increased | increased | increased | –

Row | Compound | Fold Activation (RORα [1]) | activity of RORα at low concentrations (RORα [2]) | activity (transcriptional activity of RORα) (RORα [1]; 100 μM, relative to control treated only with a solvent) [%] | transcriptional activity of RORα (RORα [2]) | effect of increasing the activity of RORα compared with melatonin (RORα [2]) | expression of LXRα protein (LXRα) | transcriptional activity of HMGCS2 (HMGCS2) | transcriptional activity of MTTP (MTTP) | transcriptional activity of ApoB100 (ApoB100) | expression of LXRα, which had been increased by T17 (LXRα; 0, 1, 10, 50, 100 μM with 1 μM T17, 24 hours, FIG. 6c)
3 | CNC(=S)NCc1ccccc1-c1ccncc1 [Compound 38, 1-methyl-3-(4-pyridinyl-2-benzyl)-thiourea] | 1.9 | insignificantly increased | – | increased in a manner dependent on the concentration | comparable to or surpassed the effect provided by melatonin | decreased | increased | increased | increased | –
